Test results as given in US11965180B2, “Cancer stem cell population and method for production thereof” (CHUGAI SEIYAKU KABUSHIKI KAISHA, priority 2010, dated 2024).

Experiments:
Format in all cases: cell-based, human
[1] = test system: Lgr5-positive colon cancer stem cells; test: Cell growth, Cell Counting Kit-8, adherent cancer stem cells; conditions: 3-day culture; for growth of Lgr5-positive colon cancer stem cells: PLR123 and PLR59 cells
Method: (§1) To determine whether or not the Wnt signaling promotes the growth of colon cancer stem cells, the inventors examined the effects of FH535 (β-catenin/TCF inhibitor) and cardamonin (Wnt/β-catenin inhibitor that induces β-catenin degradation) on the growth of colon cancer stem cells. Cell growth was evaluated as described below. Floating and adherent cancer stem cells were seeded at about 100 and 1×10^4 cells per well, respectively, in 96-well plates. On days 0 and 3, living cells were counted using the Cell Counting Kit-8 assay (Doujindo) according to the manufacturer's protocol. The average absorbance on day 0 was expressed as 100%. For chemical sensitivity analysis, floating and adherent cancer stem cells were seeded at about 100 and 1×10^4 cells per well in 96-well plates, respectively. […] After 3-day culture in the presence of a drug, Cell Counting Kit-8 was added to the cells. The average absorbance of cells exposed to DMSO or the medium alone was expressed as 100%. All the experiments were conducted in triplicate.

[2] = test system: Lgr5-negative colon cancer stem cells; test: Cell growth, Cell Counting Kit-8, floating cancer stem cells; conditions: 3-day culture; for growth and survival of Lgr5-negative colon cancer stem cells: 10 μg/ml
Method: as §1

[3] = test system: Lgr5-positive colon cancer stem cells; test: Lgr5 expression in adherent cancer stem cells after chemotherapeutic agent treatment (flow cytometry); conditions: after 3 days of exposing Lgr5-positive colon cancer stem cells to 10 μg/ml
Method: Gray indicates fluorescence intensity or ALDH activity after staining cells with the antibodies described. White indicates fluorescence intensity or ALDH activity of an ALDH inhibitor after staining cells with a control isotype antibody.
CSC was incubated with a labeled antibody and analyzed using EPICS ALTRA (Beckman Coulter) and FACSCalibur (Becton Dickinson). The antibodies used were PE-labeled mouse anti-human CD133 (Miltenyi Biotec), PE-labeled mouse anti-human CD44 (BD Pharmingen), FITC-labeled mouse anti-human CD326 (EpCAM) (Miltenyi Biotec), PE-labeled mouse anti-human CD166 (R & D Systems), PE-labeled mouse anti-human CD24 (BD Pharmingen), PE-labeled mouse anti-human CD26 (BD Pharmingen), and PE-labeled mouse anti-human CD29 (BD Pharmingen) antibodies.
Subsequently, the CSC was incubated with a mouse anti-human Lgr5 antibody (2T15E-2) and then a PR-labeled rat anti-mouse IgG (Invitrogen) antibody for Lgr5 staining. Aldehyde dehydrogenase activity was measured using the AldeFluor Kit (Stemcell Technologies). Mouse cells and human CSC were distinguished by staining with an anti-mouse MHC class I antibody (Abcam) and a PE- or APC-labeled goat anti-human IgG2a (BioLegend) antibody. Dead cells were removed with the 7-AAD Viability Dye (Beckman Coulter).

SMILES: Cc1cc([N+](=O)[O-])ccc1NS(=O)(=O)c1cc(Cl)ccc1Cl [FH535]
- growth of Lgr5-positive colon cancer stem cells ([1]; 50 μM): significantly reduced the growth
- growth of Lgr5-negative colon cancer stem cells ([2]; 50 μM, PLR123 and PLR59 cells): had no effect on the growth

SMILES: CCc1c2c(nc3ccc(OC(=O)N4CCC(N5CCCCC5)CC4)cc13)-c1cc3c(c(=O)n1C2)COC(=O)[C@]3(O)CC [irinotecan]
- growth of Lgr5-positive colon cancer stem cells ([1]; 10 μg/ml): significantly inhibited the growth
- growth and survival of Lgr5-negative colon cancer stem cells ([2]; PLR123 and PLR59 cells): had no effect on the growth and survival

SMILES: O=c1[nH]cc(F)c(=O)[nH]1 [5-FU]
- growth of Lgr5-positive colon cancer stem cells ([1]; 10 μg/ml): significantly inhibited the growth
- growth and survival of Lgr5-negative colon cancer stem cells ([2]; PLR123 and PLR59 cells): had no effect on the growth and survival
- Lgr5 status of drug-resistant cells [3]: negative for Lgr5

SMILES: COc1cc(O)cc(O)c1C(=O)/C=C/c1ccccc1 [cardamonin]
- number of living cells ([1]; 50 μM, relative to DMSO alone, Lgr5-positive colon cancer stem cells): 70%
- number of living cells ([2]; 50 μM, relative to DMSO alone, Lgr5-negative colon cancer stem cells): about 50%
